Experimental data from patent US20260125356A1, “TREATMENT OF LEISHMANIASIS” (THE UNIVERSITY OF DURHAM, priority 2022, published 2026).
Converted amounts (≈) assume the structure as drawn. Like-named read-outs stand apart in the source and are kept apart here.

Assays:
[1] = system: L. major promastigotes; assay: L. major promastigote dose response assay (alamarBlue/resazurin); type: cell-based; details: for EC50: 44 hrs + 4 hrs alamarBlue/resazurin, 26° C.
Description: Using a standard alamarBlue™ assay, activity and selectivity were assessed using L. major promastigotes and HepG2 cells, respectively.
All parasite and human cell cultures were grown and manipulated following biosafety level 2 instructions under sterile conditions. L. major FV1, L. amazonensis (MHOM/Br/75/JOSEFA), L. donovani BOB (derived from MHOM/SD/62/1S-CL2D), T. brucei (90-13, 427 strain) and T. cruzi (Dm28c) were used throughout.
All steps were carried out under sterile conditions. Frozen stocks of the relevant Leishmania promastigote species were thawed rapidly and added to Schneider's media. Promastigotes were grown at 26° C. in Nunc EasYFlask 25 cm^2 Nunclon Delta Surface (ThermoScientific) and frozen stocks were prepared on low passage cultures (p2-4) by pelleting the cells by centrifugation and resuspending in Schneider's media with 10% DMSO. The cultures were aliquoted into cryovials (Starlab) and cooled slowly to −150° C. for long term storage.
All steps were carried out under sterile conditions. […] Cycloheximide or amphotericin B were used as positive controls and 2% DMSO was used as a negative control. alamarBlue® (ThermoFisher scientific) or resazurin solution was added to each well and incubated for a further 4 hrs at 26° C. Cell-viability was determined using a BioTek™ FLx800 microplate reader with Gen5® 1.08 data analysis software (BioTek) by monitoring fluorescence emission (λex 560/λem 590 nm). Dose response curves were fitted using sigmoidal regression analysis (GraphPad Prism 8 software) and used to calculate EC50 values.

[2] = system: L. amazonensis promastigotes; assay: L. amazonensis promastigote dose response assay (alamarBlue/resazurin); type: cell-based; details: 44 hrs + 4 hrs alamarBlue/resazurin, 26° C., read-out: EC50 (L. amaz)/μM
[3] = Kinetic solubility; details: PBS, aqueous buffer, kinetic from dmso stock
From the text: All chemicals and solvents were sourced from commercial suppliers. Buffers were made up using purified water from a MilliQ® water purification system. Biorelevant buffers (FESSIF, FASSIF and FASSGF) were purchased from Biorelevant and made up according to manufacturer's instructions. 15% FBS (heat inactivated, South American origin, ThermoFisher scientific) in PBS (Fisher Scientific) was filter sterilised (0.22 μm Fisherbrand™ Sterile PES Syringe Filter, Fisher Scientific) before use. Sodium taurocholate was purchased from Merck.
λmax was determined for each compound from the UV-Vis absorption spectrum of a 200 LIM compound solution in buffer of interest using a Varian Cary® 100 UV-Vis Spectrophotometer. A calibration curve of λmax VS concentration was obtained by serial dilution of compound from 200 μM in the buffer of interest, correcting for background buffer absorption. For each sample, a DMSO solution of compound was incubated in buffer of interest (<5% DMSO) for 2 hrs at RT. The solution was filtered (0.22 μm Fisherbrand™ Sterile PES Syringe Filter, Fisher Scientific) or centrifuged (14,500 rpm, 10 min) to remove undissolved debris and the supernatant was removed and diluted as required. The corrected UV absorption of the supernatant at Amax Was measured using a Varian Cary® 100 UV-Vis Spectrophotometer and compared to the calibration curve to determine compound solubility.

Compound | EC50 [1] [µM] | EC50 ([1]; Leishmania major, 48 h) [µM] | EC50 ([2]; Leishmania amazonensis, 48 h) [µM] | further results
5′-amino-N-[3-(methylcarbamoyl)thiophen-2′-yl]thiophene-2-carboxamide [Compound 8] | > 100 | – | – | –
5′-bromo-N-[3-(methylcarbamoyl)thiophen-2-yl]thiophene-2′-carboxamide [Compound 7] | > 100 | – | – | EC50 [2]: > 100 µM
O=C(N[C@H]1CCC[C@H]1C(=O)O)c1ccc([N+](=O)[O-])s1 (racemic) [Compound 23, ±syn 2-(5′-nitrothiophene-2′-amido)cyclopentane-1-carboxylic acid] | > 100 | – | – | EC50 [2]: 52 µM
O=C(NC1CCCC1C(=O)O)c1ccc([N+](=O)[O-])s1 (racemic) [Compound 24, ±anti 2-(5′-nitrothiophene-2′-amido)cyclopentane-1-carboxylic acid] | > 100 | – | – | EC50 [2]: > 100 µM
CNC(=O)c1ccsc1NC(=O)c1cccs1 [Compound 6, N-methyl-2-(thiophene-2′-amido)thiophene-3-carboxamide] | – | > 100 | > 100 | –
CNC(=O)c1ccsc1NC(=O)c1cnc(Cl)s1 [Compound 9, N-[3-(methylcarbamoyl)thiophen-2-yl]-2′-chloro-1′,3′-thiazole-5′-carboxamide] | – | 33 ± 10 | – | –
CNC(=O)c1ccsc1NC(=O)c1ccccc1 [Compound 10, 2-benzamido-N-methylthiophene-3-carboxamide] | – | 75 ± 5 | 55 ± 5 | –
CNC(=O)c1ccsc1NC(=O)c1nccs1 [Compound 11, N-[3-(methylcarbamoyl)thiophen-2-yl]-1′,3′-thiazole-2′-carboxamide] | – | 78 ± 2 | > 100 | –
CNC(=O)c1ccsc1NC(=O)c1cncs1 [Compound 12, N-[3-(methylcarbamoyl)thiophen-2-yl]-1′,3′-thiazole-5′-carboxamide] | – | 88 ± 6 | 53 ± 3 | –
CNC(=O)c1ccsc1NC(=O)c1cscn1 [Compound 13, N-[3-(methylcarbamoyl)thiophen-2-yl]-1′,3′-thiazole-4′-carboxamide] | – | > 100 | 93 ± 7 | –
CNC(=O)c1ccsc1NC(=O)c1ccncc1 [Compound 14, N-[3-(methylcarbamoyl)thiophen-2-yl]pyridine-4′-carboxamide] | – | 82 ± 1 | 45 ± 5 | –
CNC(=O)c1ccsc1NC(=O)c1cccnc1 [Compound 15, N-[3-(methylcarbamoyl)thiophen-2-yl]pyridine-3′-carboxamide] | – | 82 ± 7 | 59 ± 2 | –
CNC(=O)c1ccsc1NC(=O)c1ccc2nonc2c1 [Compound 16, N-[3-(methylcarbamoyl)thiophen-2-yl]-2,1,3-benzoxadiazole-5′-carboxamide] | – | > 100 | > 100 | –
CNC(=O)c1ccsc1NC(=O)c1cccc([N+](=O)[O-])c1 [Compound 18, N-methyl-2-(3′-nitrobenzamido)thiophene-3-carboxamide] | – | > 100 | > 100 | –
CNC(=O)c1ccsc1NC(=O)c1ccc([N+](=O)[O-])cc1 [Compound 19, N-methyl 2-(4′-nitrobenzamido)thiophene-3-carboxamide] | – | > 100 | > 100 | –
CNC(=O)c1ccsc1NC(=O)c1ccc([N+](=O)[O-])cc1C(F)(F)F [Compound 20, N-methyl-2-[4′-nitro-2′-(trifluoromethyl)benzamido]thiophene-3-carboxamide] | – | 16.6 ± 0.2 | 38.7 | improvement in antileishmanial activity compared to 19 ([1]; Table 2): > 3 fold
CCOC(=O)C1CCCC1NC(=O)c1ccc([N+](=O)[O-])s1 (stereo not drawn) [Compound 21, syn-ethyl-2-(5′-nitrothiophene-2′-amido)cyclopentane-1-carboxylate] | 22 | – | – | EC50 [2]: 9.7 µM
CCOC(=O)C1CCCC1NC(=O)c1ccc([N+](=O)[O-])s1 (stereo not drawn) [Compound 22, anti-ethyl-2-(5′-nitrothiophene-2′-amido)cyclopentane-1-carboxylate] | 10 | – | – | EC50 [2]: 13 µM
CCOC(=O)C1=C(NC(=O)c2ccc([N+](=O)[O-])s2)CCC1 [Compound 26, Ethyl 2-(5′-nitrothiophene-2′-amido)cyclopent-1-ene-1-carboxylate] | – | 0.46 | 0.72 | –

Compound | EC50 [1] [µM] | EC50 ([1]; Leishmania major, 48 h) [µM] | EC50 ([2]; Leishmania amazonensis, 48 h) [µM] | further results
O=C(Nc1ccccc1C(=O)O)c1ccc([N+](=O)[O-])s1 [Compound 29, 2-(5′-nitrothiophene-2′-amido)benzoic acid] | – | 46 | – | –
COc1ccccc1NC(=O)c1ccc([N+](=O)[O-])s1 [Compound 30, N-(2-methoxyphenyl)-5′-nitrothiophene-2′-carboxamide] | 6.3 | – | – | –
O=C(Nc1ccccc1C(F)(F)F)c1ccc([N+](=O)[O-])s1 [Compound 31, 5′-nitro-N-[2-(trifluoromethyl)phenyl]thiophene-2′-carboxamide] | 8.3 | – | – | EC50 [2]: 4.24 µM
CC(=O)c1ccccc1NC(=O)c1ccc([N+](=O)[O-])s1 [Compound 32, N-(2-acetylphenyl)-5′-nitrothiophene-2′-carboxamide] | 16 | – | – | –
CNC(=O)c1cccc(Nc2ccc([N+](=O)[O-])s2)c1 [Compound 34, N-methyl-3-[(5′-nitrothiophen-2′-yl)amino]benzamide] | 3.5 | – | – | EC50 [2]: 0.26 µM
COc1cccc(NC(=O)c2ccc([N+](=O)[O-])s2)c1 [Compound 35, N-(3-methoxyphenyl)-5′-nitrothiophene-2′-carboxamide] | 3.9 | – | – | –
COc1ccc(NC(=O)c2ccc([N+](=O)[O-])s2)cc1 [Compound 36, N-(4-methoxyphenyl)-5′-nitrothiophene-2′-carboxamide] | 3.45 | – | – | –
O=C(Nc1cccc(C(F)(F)F)c1)c1ccc([N+](=O)[O-])s1 [Compound 37, 5′-nitro-N-[3-(trifluoromethyl)phenyl]thiophene-2′-carboxamide] | 3.5 | – | – | EC50 [2]: 2.22 µM
CC(C)NC(=O)c1ccccc1NC(=O)c1ccc([N+](=O)[O-])s1 [Compound 38, 5′-nitro-N-{[(propan-2-yl)carbamoyl]-2-phenyl}thiophene-2′-carboxamide] | 4 | – | – | –
CCCCCCCCCCCCCNC(=O)c1ccccc1NC(=O)c1ccc([N+](=O)[O-])s1 [Compound 39, 5′-nitro-N-[2-(tridecylcarbamoyl)phenyl]thiophene-2′-carboxamide] | > 100 | – | – | –
CNC(=O)c1c(C)cccc1NC(=O)c1ccc([N+](=O)[O-])s1 [Compound 40, N-[3-methyl-2-(methylcarbamoyl)phenyl]-5′-nitrothiophene-2′-carboxamide] | 8.5 | – | – | –
CNC(=O)c1cc(OC)ccc1NC(=O)c1ccc([N+](=O)[O-])s1 [Compound 41, N-[4-methoxy-2-(methylcarbamoyl)phenyl]-5′-nitrothiophene-2′-carboxamide] | 16 | – | – | –
CNC(=O)c1cc(C)ccc1NC(=O)c1ccc([N+](=O)[O-])s1 [Compound 42, N-[4-methyl-2-(methylcarbamoyl)phenyl]-5′-nitrothiophene-2′-carboxamide] | 2.7 | – | – | –
NC(=O)c1ccccc1CNC(=O)c1ccc([N+](=O)[O-])s1 [Compound 47, N-(2-carbamoylbenzyl)-5′-nitrothiophene-2′-carboxamide] | – | 21 ± 3 | – | solubility at 2 h [3]: 179 ± 8 µM (≈ 54.7 µg/mL)
CNC(=O)c1ccsc1N(C)C(=O)c1ccc([N+](=O)[O-])s1 [Compound 48, N-methyl-2-(N-methyl-5′-nitrothiophene-2′-amido)thiophene-3-carboxamide] | – | 9.6 ± 0.7 | – | solubility at 2 h [3]: 190 ± 20 µM (≈ 61.8 µg/mL)
O=C(c1ccc([N+](=O)[O-])s1)N1CCCc2ccccc21 [Compound 49, 1-(5′-nitrothiophene-2′-carbonyl)-1,2,3,4-tetrahydroquinoline] | – | 11.1 ± 0.3 | – | solubility at 2 h [3]: 151 ± 3 µM (≈ 43.5 µg/mL)
CN(C)C(=O)c1ccccc1NC(=O)c1ccc([N+](=O)[O-])s1 [Compound 56, N-[2-(dimethylcarbamoyl)phenyl]-5′-nitrothiophene-2′-carboxamide] | – | 17 | 6.3 | –
O=c1oc(-c2ccc([N+](=O)[O-])s2)nc2ccccc12 [Compound 57, 2-(5′-nitrothiophen-2′-yl)-4H-3,1-benzoxazin-4-one] | – | 38 | – | –
